Data from PubChem BioAssay AID330 (DTP/NCI, 2004).
Several values for one entry are separate records, joined by “and”; a condition that tells them apart may be missing. Identical values can stand only once. Inconclusive results and toxic doses are left out. Rule for the calls: active = survival T/C of 150% or more; inactive = T/C below 125% in these data.

System: P388 leukemia ip, CD2F1 mice, survival T/C
Assay: NCI In Vivo Anticancer Drug Screen. Data for tumor model P388 Leukemia (intraperitoneal) in CD2F1 (CDF1) mice
Conditions: endpoint: median survival time, higher = longer survival
Procedure, shortened: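 Mice carrying the transplanted tumor received test compound or vehicle. Survival was recorded in each group, and the value is the treated-group measurement divided by that of the vehicle-treated control group.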

[1] = dose: 100.0 mg/kg/injection, schedule: Q01DX001 (ip), vehicle: saline with Tween-80
[2] = dose: 200.0 mg/kg/injection, schedule: Q01DX001 (ip), vehicle: saline with Tween-80
[3] = dose: 25.0 mg/kg/injection, schedule: Q01DX005 (ip), vehicle: saline
[4] = dose: 60.0 mg/kg/injection, schedule: Q01DX005 (ip), vehicle: saline with Tween-80
[5] = dose: 120.0 mg/kg/injection, schedule: Q01DX005 (ip), vehicle: saline with Tween-80
[6] = dose: 240.0 mg/kg/injection, schedule: Q01DX005 (ip), vehicle: saline with Tween-80
[7] = dose: 6.25 mg/kg/injection, schedule: Q01DX009 (ip), vehicle: saline
[8] = dose: 12.5 mg/kg/injection, schedule: Q01DX009 (ip), vehicle: saline
[9] = dose: 25.0 mg/kg/injection, schedule: Q01DX009 (ip), vehicle: saline
[10] = dose: 100.0 mg/kg/injection, schedule: Q01DX009 (ip), vehicle: saline
[11] = dose: 6.25 mg/kg/injection, schedule: Q01DX009 (ip), vehicle: saline with Tween-80
[12] = dose: 25.0 mg/kg/injection, schedule: Q01DX009 (ip), vehicle: saline with Tween-80
[13] = dose: 100.0 mg/kg/injection, schedule: Q01DX009 (ip), vehicle: saline with Tween-80
[14] = dose: 200.0 mg/kg/injection, schedule: Q01DX009 (ip), vehicle: saline with Tween-80

Measured: T/C

CCOC(=O)Nc1cc2ncc(-c3ccccc3)nc2c(N)n1
inactive: dose: 50.0 mg/kg/injection, schedule: Q01DX001 (ip), vehicle: saline with Tween-80 97 % of control | [1] 93 % of control | [2] 90 % of control

CC(CO)CC(C)(C)C (centres undefined)
inactive: [3] 101 % of control | dose: 50.0 mg/kg/injection, schedule: Q01DX005 (ip), vehicle: saline 108 % of control | dose: 100.0 mg/kg/injection, schedule: Q01DX005 (ip), vehicle: saline 104 % of control | dose: 200.0 mg/kg/injection, schedule: Q01DX005 (ip), vehicle: saline 109 % of control

CN1CC=C(c2ccccc2)CC1
inactive: dose: 6.25 mg/kg/injection, schedule: Q01DX005 (ip), vehicle: saline 97 % of control | dose: 12.5 mg/kg/injection, schedule: Q01DX005 (ip), vehicle: saline 99 % of control | [3] 101 % of control and 98 % of control

CC(=O)Nc1ccc(S(=O)(=O)/C(=C\c2ccc(Cl)o2)c2ccc([N+](=O)[O-])o2)cc1
inactive: dose: 50.0 mg/kg/injection, schedule: Q01DX009 (ip), vehicle: suspension in saline 86 % of control | dose: 100.0 mg/kg/injection, schedule: Q01DX009 (ip), vehicle: suspension in saline 88 % of control | dose: 200.0 mg/kg/injection, schedule: Q01DX009 (ip), vehicle: suspension in saline 92 % of control

CC(=O)O[C@H]1CC[C@]2(C)C3CC[C@]4(C)C([C@H](C)CCCC(C)C)CCC4[C@]3(C#N)n3c(=O)n(-c4ccccc4)c(=O)n3[C@]2(C#N)C1 (some centres undefined)
inactive: [4] 96 % of control | [5] 93 % of control | [6] 91 % of control

Cn1c(N)c(N=Nc2cccnc2)c(=O)n(C)c1=O
inactive: [1] 95 % of control | [2] 98 % of control | dose: 400.0 mg/kg/injection, schedule: Q01DX001 (ip), vehicle: saline with Tween-80 95 % of control

Cc1c(-c2ccccc2)ccnc1/C=N/NC(N)=S
inactive: [7] 101 % of control | [8] 120 % of control | [9] 120 % of control | [10] 103 % of control

O=C(O)/C=C\C(=O)Nc1ccccn1
inactive: dose: 5.0 mg/kg/injection, schedule: Q01DX009 (ip), vehicle: saline with Tween-80 109 % of control | dose: 5.0 mg/kg/injection, schedule: Q01DX009 (ip), vehicle: saline 100 % of control | dose: 10.0 mg/kg/injection, schedule: Q01DX009 (ip), vehicle: saline with Tween-80 100 % of control | dose: 10.0 mg/kg/injection, schedule: Q01DX009 (ip), vehicle: saline 105 % of control | dose: 20.0 mg/kg/injection, schedule: Q01DX009 (ip), vehicle: saline with Tween-80 104 % of control | dose: 30.0 mg/kg/injection, schedule: Q01DX009 (ip), vehicle: saline 105 % of control | dose: 60.0 mg/kg/injection, schedule: Q01DX009 (ip), vehicle: saline 100 % of control

CCC(=O)NC(Cc1cccs1)C(=O)O (centres undefined)
inactive: [7] 107 % of control | [8] 105 % of control | [9] 93 % of control | [10] 88 % of control | dose: 200.0 mg/kg/injection, schedule: Q01DX009 (ip), vehicle: saline 91 % of control

C=CCSc1n[nH]c(-c2cccs2)n1
inactive: dose: 30.0 mg/kg/injection, schedule: Q01DX005 (ip), vehicle: Klucel (hydroxypropylcellulose) (HPC) 104 % of control | dose: 60.0 mg/kg/injection, schedule: Q01DX005 (ip), vehicle: Klucel (hydroxypropylcellulose) (HPC) 109 % of control | dose: 120.0 mg/kg/injection, schedule: Q01DX005 (ip), vehicle: Klucel (hydroxypropylcellulose) (HPC) 109 % of control | dose: 240.0 mg/kg/injection, schedule: Q01DX005 (ip), vehicle: Klucel (hydroxypropylcellulose) (HPC) 109 % of control

CCCCOP(=O)(O)OCCCC.[V]
inactive: [11] 99 % of control | dose: 12.5 mg/kg/injection, schedule: Q01DX009 (ip), vehicle: saline with Tween-80 96 % of control | [12] 97 % of control | [13] 104 % of control | [14] 103 % of control

Clc1ccc(N=Cc2ccc(C=Nc3ccc(Cl)c(Cl)c3)cc2)cc1Cl
inactive: [12] 103 % of control | dose: 50.0 mg/kg/injection, schedule: Q01DX009 (ip), vehicle: saline with Tween-80 90 % of control | [13] 88 % of control | [14] 94 % of control

CN1C2CCC1c1c([nH]c3ccccc13)C2 (centres undefined)
inactive: [4] 94 % of control | [5] 94 % of control

Cc1nn(-c2ccccc2)c2c1C(c1ccc([N+](=O)[O-])cc1)C(C#N)=C(N)O2 (centres undefined)
inactive: dose: 50.0 mg/kg/injection, schedule: Q01DX009 (ip), vehicle: Klucel (hydroxypropylcellulose) (HPC) 102 % of control | dose: 100.0 mg/kg/injection, schedule: Q01DX009 (ip), vehicle: Klucel (hydroxypropylcellulose) (HPC) 90 % of control | dose: 200.0 mg/kg/injection, schedule: Q01DX009 (ip), vehicle: Klucel (hydroxypropylcellulose) (HPC) 107 % of control

Cc1nc2c(cc1C#N)C(Nc1ccc(Cl)cc1)Oc1ccc([N+](=O)[O-])cc1-2 (centres undefined)
inactive: [4] 92 % of control | [5] 92 % of control | [6] 90 % of control

O=C1C=C2C=CC(O)C(O)C2O1 (centres undefined)
inactive: dose: 2.5 mg/kg/injection, schedule: Q01DX009 (ip), vehicle: Klucel (hydroxypropylcellulose) (HPC) 102 % of control | dose: 5.0 mg/kg/injection, schedule: Q01DX009 (ip), vehicle: Klucel (hydroxypropylcellulose) (HPC) 98 % of control | dose: 10.0 mg/kg/injection, schedule: Q01DX009 (ip), vehicle: Klucel (hydroxypropylcellulose) (HPC) 100 % of control | dose: 20.0 mg/kg/injection, schedule: Q01DX009 (ip), vehicle: Klucel (hydroxypropylcellulose) (HPC) 94 % of control

c1ccc2c(c1)CCc1ccccc1C2NC1=NCCO1
inactive: dose: 12.5 mg/kg/injection, schedule: Q04DX003 (ip), vehicle: saline with Tween-80 90 % of control | dose: 25.0 mg/kg/injection, schedule: Q04DX003 (ip), vehicle: saline with Tween-80 90 % of control | dose: 50.0 mg/kg/injection, schedule: Q04DX003 (ip), vehicle: saline with Tween-80 86 % of control

O=c1[nH]c(=O)n(C2CC(O)C(CO)C2)cc1F (centres undefined)
inactive: dose: 200.0 mg/kg/injection, schedule: Q01DX005 (ip), vehicle: saline + Tween-80 + alcohol 100 % of control | dose: 400.0 mg/kg/injection, schedule: Q01DX005 (ip), vehicle: saline + Tween-80 + alcohol 120 % of control

ClCC1=NC2CCCCC2N1 (centres undefined)
inactive: dose: 50.0 mg/kg/injection, schedule: Q01DX005 (ip), vehicle: saline with Tween-80 102 % of control | dose: 100.0 mg/kg/injection, schedule: Q01DX005 (ip), vehicle: saline with Tween-80 98 % of control

CC(C)OCc1cccc2ccnc(COC(C)C)c12
inactive: dose: 100.0 mg/kg/injection, schedule: Q01DX001 (ip), vehicle: saline 102 % of control | dose: 200.0 mg/kg/injection, schedule: Q01DX001 (ip), vehicle: saline 100 % of control | dose: 400.0 mg/kg/injection, schedule: Q01DX001 (ip), vehicle: saline 95 % of control

C[C@@H]1C(N2CCCC2)=CC(=O)OC1c1ccccc1 (some centres undefined)
inactive: [4] 105 % of control | [5] 109 % of control | [6] 111 % of control

CCCCN(C(C)=O)c1nc2ccccc2n1C
inactive: dose: 100.0 mg/kg/injection, schedule: Q04DX003 (ip), vehicle: saline 97 % of control | dose: 200.0 mg/kg/injection, schedule: Q04DX003 (ip), vehicle: saline 98 % of control | dose: 400.0 mg/kg/injection, schedule: Q04DX003 (ip), vehicle: saline 95 % of control

Cl[C](Cl)(Cl)[Hg][C](Cl)(Cl)Cl
inactive: dose: 1.56 mg/kg/injection, schedule: Q01DX009 (ip), vehicle: saline with Tween-80 95 % of control | dose: 3.12 mg/kg/injection, schedule: Q01DX009 (ip), vehicle: saline with Tween-80 90 % of control and 96 % of control | [11] 87 % of control

COc1cc(Br)c(CC(NC=O)c2ccc3c(c2)OCO3)cc1OC (centres undefined)
inactive: dose: 15.0 mg/kg/injection, schedule: Q01DX005 (ip), vehicle: saline with Tween-80 107 % of control | dose: 30.0 mg/kg/injection, schedule: Q01DX005 (ip), vehicle: saline with Tween-80 104 % of control | [4] 89 % of control and 94 % of control

CCCCCC(=O)NC1C(O)OC(CO)C(O)C1O (centres undefined)
inactive: dose: 50.0 mg/kg/injection, schedule: Q01DX005 (ip), vehicle: Klucel (hydroxypropylcellulose) (HPC) 106 % of control | dose: 100.0 mg/kg/injection, schedule: Q01DX005 (ip), vehicle: Klucel (hydroxypropylcellulose) (HPC) 97 % of control
